Assay results taken from US20160271126A1, “PHARMACEUTICAL COMPOSITION” (Hoffmann-La Roche Inc., priority 2013, published 2016).

Key:
Solubility of bitopertin = format: physicochemical
Source text: (§1) Being a BCS 2 molecule (according to the Biopharmaceutics Classification System, wherein the molecule has high permeability and low solubility), the API particles size distribution has been identified as a major critical quality attribute of the drug substance. […] Thus, micronized API was selected for development of a suitable formulation.

[1] = Biopharmaceutics Classification System class; format: physicochemical; parameters: key: 2: the molecule has high permeability and low solubility
Source text: as §1

solubility in aqueous buffers and in water (Solubility of bitopertin; aqueous buffers and water): practically insoluble | solubility in polar organic solvents (Solubility of bitopertin; polar organic solvents): freely soluble | BCS class (Biopharmaceutics Classification System) [1]: 2
Structure (SMILES): C[C@H](Oc1ccc(S(C)(=O)=O)cc1C(=O)N1CCN(c2ncc(C(F)(F)F)cc2F)CC1)C(F)(F)F [Bitopertin]
